Measured values as given in ChEMBL document CHEMBL1201862, “PubChem BioAssay data set” (2004).
Values joined by “and” are separate entries in the source; they are usually repeats but may differ in a detail not shown here. Equal values may be shown once.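 Step 1: Grow cells in 96-well plates. Step 2: Expose to compound for 48 hours at 5 concentrations. Step 3: Interpolate endpoints linearly; if unreached, use highest concentration. GI50 marks 50% less growth.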 Active and inactive are the calls of the source. Cut-off read from the data, not from the text of the source: active = GI50 up to about 1.1 µM and inactive = higher.

Experiments:
Test in all cases: NCI tumour cell line growth inhibition, 48 h
SNB-19 = test system: SNB-19
EKVX = test system: EKVX
SF-268 = test system: SF-268
KM12 = test system: KM12
SN12C = test system: SN12C
A498 = test system: A498
U-251 = test system: U-251
SK-OV-3 = test system: SK-OV-3
HL-60 = test system: HL-60
OVCAR-4 = test system: OVCAR-4
UACC-62 = test system: UACC-62
HOP-92 = test system: HOP-92
RPMI-8226 = test system: RPMI-8226
NCI-H522 = test system: NCI-H522
RXF 393 = test system: RXF 393
SR = test system: SR

Measured: GI50

NCCCNCCSSC/C=C\CSSCCNCCCN
inactive: SNB-19 > 100 µM | EKVX > 100 µM | SF-268 > 100 µM and 57.8 µM | KM12 17.7 µM and 18.9 µM | SN12C 75.7 µM and 44.4 µM | A498 > 100 µM | U-251 > 100 µM and 53.8 µM | SK-OV-3 > 100 µM | HL-60 16.6 µM and 19.2 µM | OVCAR-4 51.8 µM and 58.2 µM | UACC-62 36.3 µM and 52.8 µM | HOP-92 18.9 µM and 23 µM | RPMI-8226 26.9 µM and 28.6 µM | NCI-H522 10.3 µM and 13.2 µM

COC(=O)C1C(=O)N(CCc2c[nH]c3ccccc23)C[C@@H]2CCC(=O)C[C@H]12 (stereo partly specified)
inactive: SNB-19 > 100 µM | EKVX > 100 µM | SF-268 > 100 µM | KM12 > 100 µM | SN12C > 100 µM | A498 > 100 µM | U-251 > 100 µM | SK-OV-3 > 100 µM | HL-60 > 100 µM | OVCAR-4 > 100 µM | UACC-62 > 100 µM | HOP-92 > 100 µM | RXF 393 > 100 µM | RPMI-8226 > 100 µM | NCI-H522 > 100 µM

CC1(C)CC(=O)C(=[N+]=[N-])C(=O)C1
inactive: SNB-19 > 100 µM | EKVX > 100 µM | SF-268 > 100 µM | KM12 > 100 µM | SN12C > 100 µM | SK-OV-3 > 100 µM | HL-60 > 100 µM | OVCAR-4 > 100 µM | UACC-62 > 100 µM | HOP-92 > 100 µM | RXF 393 > 100 µM | RPMI-8226 > 100 µM | NCI-H522 > 100 µM

O=C(Nc1ccc(Cl)c(Cl)c1)C1C(=O)N(c2ccc(Cl)c(Cl)c2)C(=O)/C1=N\O (stereo unspecified)
inactive: SNB-19 > 100 µM | EKVX 39.6 µM | SF-268 > 100 µM | SN12C 61.8 µM | A498 > 100 µM | U-251 66.8 µM | SK-OV-3 > 100 µM | OVCAR-4 70.1 µM | UACC-62 > 100 µM | HOP-92 > 100 µM | RPMI-8226 > 100 µM | NCI-H522 27.4 µM

COc1ccc(/C=c2/sc3n(c2=O)NC2(CCCCC2)NN=3)cc1
inactive: SNB-19 > 100 µM | EKVX > 100 µM | SF-268 > 100 µM | KM12 > 100 µM | SN12C > 100 µM | SR > 100 µM | U-251 > 10 µM | SK-OV-3 > 100 µM | OVCAR-4 > 100 µM | UACC-62 > 100 µM | HOP-92 > 100 µM | RXF 393 > 100 µM | NCI-H522 > 100 µM

NC(=O)c1ccc(Cl)c([N+](=O)[O-])c1
inactive: SNB-19 > 100 µM | EKVX > 100 µM | SF-268 > 100 µM | KM12 > 100 µM | SN12C > 100 µM | A498 > 100 µM | U-251 > 100 µM | SK-OV-3 > 100 µM | HL-60 > 100 µM | OVCAR-4 > 100 µM | UACC-62 > 100 µM | HOP-92 > 100 µM | RXF 393 > 100 µM | RPMI-8226 > 10 µM | NCI-H522 48.9 µM

N=C(N)n1ncc(Cl)c(Cl)c1=O
inactive: SNB-19 4.16 µM | EKVX 2.36 µM | SF-268 3.11 µM | KM12 6.5 µM | SN12C 2.69 µM | A498 18.6 µM | U-251 7.11 µM | SK-OV-3 17.9 µM | HL-60 2.21 µM | OVCAR-4 1.91 µM | UACC-62 2.48 µM | HOP-92 2.43 µM | RPMI-8226 2.28 µM | NCI-H522 1.79 µM

N#Cc1ccc(OCCSCCCCCCCCCCSCCOc2ccc(C#N)cc2)cc1
inactive: EKVX > 100 µM | SF-268 > 100 µM | KM12 > 100 µM | SN12C > 100 µM | A498 > 100 µM | U-251 > 100 µM | SK-OV-3 > 100 µM | HL-60 > 100 µM | UACC-62 > 100 µM | RXF 393 > 100 µM | RPMI-8226 > 100 µM | NCI-H522 29.6 µM

COC1(OC)CCCCC2c3cccc(OC(C)=O)c3C21OC(C)=O (stereo unspecified)
inactive: SNB-19 > 100 µM | EKVX > 100 µM | SF-268 > 100 µM | KM12 > 100 µM | SN12C > 100 µM | SR 59.2 µM | SK-OV-3 > 100 µM | HL-60 65.8 µM | OVCAR-4 > 100 µM | UACC-62 > 100 µM | RPMI-8226 54 µM | NCI-H522 > 100 µM

NC(=S)N/N=C1\CCCC\C1=C/c1ccccc1
inactive: SNB-19 > 100 µM | EKVX 99.8 µM | SF-268 54 µM | KM12 45.1 µM | SN12C 39.5 µM | A498 > 100 µM | U-251 40.5 µM | SK-OV-3 > 100 µM | HL-60 1.88 µM | OVCAR-4 27 µM | UACC-62 57.7 µM | HOP-92 47.2 µM | RXF 393 23.8 µM | RPMI-8226 15 µM | NCI-H522 18.7 µM

O=C(CCC(=O)C1Cc2ccccc2C1=O)Nc1cccc(C(F)(F)F)c1 (stereo unspecified)
inactive: SNB-19 > 100 µM | EKVX > 100 µM | SF-268 > 100 µM | KM12 > 100 µM | SN12C > 100 µM | U-251 > 100 µM | SK-OV-3 > 100 µM | HL-60 > 100 µM | OVCAR-4 > 100 µM | UACC-62 > 100 µM | HOP-92 > 100 µM | RXF 393 > 100 µM

CCOc1ccccc1NC(=O)C(=O)CC(=O)c1c(C)[n+]([O-])c2ccccc2[n+]1[O-]
inactive: SNB-19 69.2 µM | EKVX > 100 µM | SF-268 > 100 µM | KM12 83.9 µM | SN12C > 100 µM | A498 > 100 µM | U-251 > 100 µM | SK-OV-3 > 100 µM | HL-60 > 100 µM | OVCAR-4 > 100 µM | UACC-62 > 100 µM | HOP-92 > 100 µM | RXF 393 > 100 µM | RPMI-8226 > 100 µM | NCI-H522 84.5 µM

CC(=O)NC1=C(NCCC(C)C)C(=O)c2ccccc2C1=O
inactive: SNB-19 > 50 µM | EKVX > 50 µM | SF-268 > 50 µM | KM12 > 50 µM | SN12C > 50 µM | SR > 50 µM | U-251 > 50 µM | SK-OV-3 > 50 µM | HL-60 > 50 µM | OVCAR-4 > 50 µM | UACC-62 > 50 µM | HOP-92 > 50 µM | RXF 393 > 50 µM | NCI-H522 > 50 µM

CCOC(=O)C1N(S(=O)(=O)c2ccc(C)cc2)CCC12c1ccccc1N(C(C)=O)C2C(/C=C/C(=O)OC)=C/C(=O)OC (stereo unspecified)
inactive: SNB-19 > 100 µM | EKVX > 100 µM | SF-268 > 100 µM | KM12 > 100 µM | SN12C > 100 µM | A498 > 100 µM | U-251 > 100 µM | SK-OV-3 > 100 µM | HL-60 66.8 µM | OVCAR-4 > 100 µM | UACC-62 > 100 µM | HOP-92 44.1 µM | RXF 393 > 100 µM | RPMI-8226 62.5 µM | NCI-H522 > 100 µM
